Data reported in patent publication US20170291890A1 (Epizyme, Inc., priority 2014, published 2017).
Read-outs that look alike come from different tables or passages of the source.

Target: T1, KDM5A (Homo sapiens, UniProt P29375)
T1 construct: C-terminal FLAG-tagged KDM5A^1-1090 was purchased from BPS Biosciences; FLAG (C); purchased BPS Biosciences
T1 sequence (P29375 1-1090): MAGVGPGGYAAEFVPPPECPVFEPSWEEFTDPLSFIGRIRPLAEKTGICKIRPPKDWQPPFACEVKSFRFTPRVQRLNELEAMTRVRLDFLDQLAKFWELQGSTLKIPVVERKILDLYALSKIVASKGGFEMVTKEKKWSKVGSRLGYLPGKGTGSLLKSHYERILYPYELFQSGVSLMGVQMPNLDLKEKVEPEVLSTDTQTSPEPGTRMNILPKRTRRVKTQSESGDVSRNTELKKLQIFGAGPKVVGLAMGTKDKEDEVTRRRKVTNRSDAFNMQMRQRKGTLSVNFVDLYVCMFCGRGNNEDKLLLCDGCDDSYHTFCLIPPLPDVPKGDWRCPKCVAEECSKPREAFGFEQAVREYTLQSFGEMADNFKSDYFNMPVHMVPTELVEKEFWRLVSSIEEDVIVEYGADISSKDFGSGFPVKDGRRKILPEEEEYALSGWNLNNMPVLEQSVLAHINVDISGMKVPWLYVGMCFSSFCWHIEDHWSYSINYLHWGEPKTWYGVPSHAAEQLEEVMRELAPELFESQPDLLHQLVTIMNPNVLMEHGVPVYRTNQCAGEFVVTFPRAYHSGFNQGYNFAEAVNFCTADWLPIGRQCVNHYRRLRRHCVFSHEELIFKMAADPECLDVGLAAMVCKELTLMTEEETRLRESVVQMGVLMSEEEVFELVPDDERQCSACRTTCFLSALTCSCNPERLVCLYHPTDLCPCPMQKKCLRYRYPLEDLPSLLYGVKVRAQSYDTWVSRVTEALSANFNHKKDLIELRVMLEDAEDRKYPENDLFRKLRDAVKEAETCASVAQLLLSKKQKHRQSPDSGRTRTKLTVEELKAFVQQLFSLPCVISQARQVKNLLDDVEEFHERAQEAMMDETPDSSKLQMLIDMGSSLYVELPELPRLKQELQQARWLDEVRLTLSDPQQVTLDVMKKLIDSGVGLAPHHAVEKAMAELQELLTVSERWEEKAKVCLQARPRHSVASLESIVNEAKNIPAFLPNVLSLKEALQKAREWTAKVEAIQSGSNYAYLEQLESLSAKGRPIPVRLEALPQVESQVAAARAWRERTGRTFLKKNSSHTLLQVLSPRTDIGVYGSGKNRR
Assay: KDM5A Assay (SAMDI mass spectrometry demethylase assay)
Format: biochemical
Details: C-terminal FLAG-tagged KDM5A 1-1090, read-out: 5A IC50
How it was run: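 FLAG-tagged KDM5A 1-1090 (20 nM) preincubated 30 min with compound in pH 8.0 HEPES buffer with ascorbate, Fe(II), TCEP, then reacted 150 min at 25 °C with H3K4me3 peptide (250 nM) and 2-oxoglutarate (15 μM). Formic acid-quenched; SAMDI-MS substrate/product AUC conversion; IC50 from dose-response.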

`O=C(O)c1ccncc1Nc1cc(-c2cccc(Cl)c2)n(C2CCC3(CC2)OCCO3)n1` [Compound 86, 3-((5-(3-chlorophenyl)-1-(1,4-dioxaspiro[4.5]decan-8-yl)-1H-pyrazol-3-yl)amino)isonicotinic acid] gave an IC50 (class symbols) of 1 to 10 µM.
`Cc1nn(C2CCN(C3CN(C)C3)CC2)cc1Nc1cnccc1C(=O)O` [Compound 91, 3-(3-methyl-1-(1-(1-methylazetidin-3-yl)piperidin-4-yl)-1H-pyrazol-4-ylamino)isonicotinic acid] showed an IC50 (class symbols) of 0.1 to 1 µM.
Compound `NC1CCC(n2nc(-c3cccc(Cl)c3)cc2Nc2cnccc2C(=O)O)CC1` (centres unmarked) [Compound 85, 3-((1-(4-aminocyclohexyl)-3-(3-chlorophenyl)-1H-pyrazol-5-yl)amino)isonicotinic acid] has an IC50 (class symbols) of 1 to 10 µM.
`Cc1nn(C2CCN(CC3CC3)CC2)cc1Nc1cnccc1C(=O)O` [Compound 89, 3-(1-(1-(cyclopropylmethyl)piperidin-4-yl)-3-methyl-1H-pyrazol-4-ylamino)isonicotinic acid] showed an IC50 (class symbols) of 0.1 to 1 µM.
In the case of `Cc1nn(C2CCN(C3CCC3)CC2)cc1Nc1cnccc1C(=O)O` [Compound 94, 3-(1-(1-cyclobutylpiperidin-4-yl)-3-methyl-1H-pyrazol-4-ylamino)isonicotinic acid], the IC50 (class symbols) is reported as 0.1 to 1 µM.
`Cn1ncc(-c2cccnc2)c1Nc1cnccc1C(=O)O` [Compound 4] showed an IC50 (numeric bound) greater than 100 µM.
Compound `Cc1c(Nc2cnccc2C(=O)O)cnn1C1CCN(CC2CC2)CC1` [Compound 90, 3-(1-(1-(cyclopropylmethyl)piperidin-4-yl)-5-methyl-1H-pyrazol-4-ylamino) isonicotinic acid] has an IC50 (class symbols) of 1 to 10 µM.
With `COC(=O)c1ccncc1Nc1cnn(C2CCN(C3CCC3)CC2)c1C` [Compound 95, methyl 3-((1-(1-cyclobutylpiperidin-4-yl)-5-methyl-1H-pyrazol-4-yl)amino)isonicotinate] the IC50 (class symbols) was 10 to 100 µM.
With `Cn1nc(Nc2cnccc2C(=O)O)cc1-c1ccccc1` [Compound 5] the IC50 (class symbols) was 0.1 to 1 µM.
`CN1CCC(n2ncc(Nc3cnccc3C(=O)O)c2-c2ccccc2)CC1` [Compound 126, 3-(1-(1-methylpiperidin-4-yl)-5-phenyl-1H-pyrazol-4-ylamino) isonicotinic acid] gave an IC50 (class symbols) of 1 to 10 µM.
Work on `O=C(O)c1ccncc1Nc1nn(-c2ccccc2)cc1-c1ccncc1` [Compound 88, 3-((1-phenyl-4-(pyridin-4-yl)-1H-pyrazol-3-yl)amino) isonicotinic acid] yielded an IC50 (class symbols) of 0.1 to 1 µM.
`COC(=O)c1ccncc1Nc1cn(C2CCN(C3CCC3)CC2)nc1C` [Compound 93, methyl 3-((1-(1-cyclobutylpiperidin-4-yl)-3-methyl-1H-pyrazol-4-yl)amino)isonicotinate] was tested, and the IC50 (class symbols) was 10 to 100 µM.
In the case of `CCc1c(Nc2cnccc2C(=O)O)cnn1-c1ccccc1` [Compound 81, 3-((5-ethyl-1-phenyl-1H-pyrazol-4-yl)amino)isonicotinic acid], the IC50 (class symbols) is reported as 1 to 10 µM.
`Cc1nn([C@H]2CC[C@@H](N)CC2)cc1Nc1cnccc1C(=O)O` [Compound 80, 3-((1-((cis)-4-aminocyclohexyl)-3-methyl-1H-pyrazol-4-yl)amino)isonicotinic acid] was tested, and the IC50 (class symbols) was 0.001 to 0.1 µM.
Compound `Cc1c(Nc2cnccc2C(=O)O)cnn1C1CCN(C2CN(C)C2)CC1` [Compound 92, 3-(5-methyl-1-(1-(1-methylazetidin-3-yl)piperidin-4-yl)-1H-pyrazol-4-ylamino)isonicotinic acid] has an IC50 (class symbols) of 1 to 10 µM.
`Cc1ccc(-n2cc(Nc3cnccc3C(=O)O)c(C)n2)cc1` [Compound 82] was tested, and the IC50 (class symbols) was 0.001 to 0.1 µM.
Work on `NC1CCC(n2nc(Nc3cnccc3C(=O)O)cc2-c2cccc(Cl)c2)CC1` (centres unmarked) [Compound 87, 3-((1-(4-aminocyclohexyl)-5-(3-chlorophenyl)-1H-pyrazol-3-yl)amino)isonicotinic acid] yielded an IC50 (class symbols) of 1 to 10 µM.
